In the NIST ThermoML archive (doi:10.1021/je400373d):

How the values were obtained:
[1] = Liquid, Ebulliometric method (Recirculating still)
[2] = Boiling temperature at pressure P; details: 101.33 kPa; Liquid; Ebulliometric method (Recirculating still)

CN(CCO)CCO [N-methyldiethanolamine]
[1]
Details	vapor or sublimation pressure [kPa]
467.34 K	20
467.4 K	20
479.37 K	30
479.4 K	30
488.14 K	40
488.17 K	40
520.28 K	101.3

CNCCO [2-(methylamino)ethanol]
[1]
Details	vapor or sublimation pressure [kPa]
388 K	20
388.04 K	20
397.89 K	30
397.95 K	30
405.45 K	40
405.48 K	40
431.2 K	101.3

Details	Boiling temperature at pressure P [°C]
[2]	158.1

OCCO [1,2-ethanediol]
[1]
Details	vapor or sublimation pressure [kPa]
422.75 K	20
422.8 K	20
433.66 K	30
433.71 K	30
441.66 K	40
441.7 K	40
470.47 K	101.3
